Measurements as given in US20160045505A1, “COMPOUNDS AND COMPOSITIONS FOR THE TREATMENT OF PARASITIC DISEASES” (NOVARTIS AG, priority 2013, published 2016).
Read-outs that look alike come from different tables or passages of the source.

Columns and labels:
[1] = test system: Trypanosoma brucei Lister 427 strain, bloodstream form; assay: Assay for proliferation of kinetoplastid parasite Trypanosoma brucei (Cell Titer Glo, 48 hours); type: cell-based; settings: Trypanosoma brucei, T. brucei Lister 427 bloodstream form, read-out: T. brucei EC50
Text: Assay for Proliferation of Kinetoplastid Parasite Trypanosoma brucei.
The proliferation is quantified by the addition of Cell Titer Glo (Promega®) a luminescent cell viability assay that measures the number of viable cells in culture based on the quantification of cellular ATP amount, which is an indicator of metabolically active cells.
The following assay illustrates the invention without in any way limiting the scope of the invention. This parasite proliferation assay measures the increase in parasite growth using an assay that measures ATP activity, Cell Titer Glo®.
Trypanosoma brucei Lister 427 strain is grown in HMI-9 Trypanosome media for T. brucei bloodstream form. 30 μl of HMI-9 media is dispensed into 384 well assay plates. 200 nl of compounds of the invention (in DMSO), including anti-trypanosome controls (Pentamidine and suramin), are then transferred into the assay plates, as well as DMSO alone to serve as a negative control for inhibition. Then 25 μl of a suspension of T. brucei culture in HMI-9 media is dispensed into the assay plates. The final concentration of parasites in culture corresponds to 1.7% of 0.5 uM ATP activity with Cell Titer Glo® in HMI-9 media. The plates are placed in a 37° C. incubator for 48 hours in an atmospheric environment containing 5% CO2. 40 μl of Cell Titer Glo® is dispensed into the plates. The plates are then read for luminescence. The percentage inhibition of 50%, EC50, is calculated for each compound.

[2] = test system: Trypanosoma cruzi amastigotes (Tulahuen strain expressing Lac-Z) cultured in 3T3 fibroblast cells; assay: microbe, parasite or virus in culture; type: cell-based; settings: Trypanosoma cruzi, TULAHUEN, Fibroblast
[3] = test system: Leishmania donovani axenic amastigote parasites; assay: Leishmania donovani axenic amastigote proliferation assay (Cell TiterGlo luminescence, 2 day incubation); type: cell-based; settings: Leishmania donovani
[4] = test system: L. donovani HU3 strain in mouse peritoneal macrophages; assay: Assay for proliferation of Leishmania parasites in infected mouse peritoneal macrophages (SybrGreen staining, high-content imaging, 5 days); type: cell-based, Leishmania donovani; settings: Leishmania donovani, Peritoneal macrophage
[5] = T. cruzi amastigotes in 3T3 fibroblast cells, inhibition of proliferation, read-out: T cruzi EC50
[6] = axenic amastigotes, inhibition of proliferation, read-out: L. donovani amastigotes EC50
[7] = L. donovani in mouse peritoneal macrophages, inhibition of proliferation, read-out: L. donovani Macrophage EC50
[8] = T. cruzi amastigotes in 3T3 fibroblast cells, read-out: T cruzi EC50
[9] = L. donovani axenic amastigotes, read-out: L. donovani amastigotes EC50
[10] = L. donovani in mouse peritoneal macrophages, read-out: L. donovani Macrophage EC50
[11] = read-out: L. donovani amastigotes EC50 (μM)
[12] = read-out: L. donovani Macrophage EC50 (μM)

In the case of `CC(C)OC(=O)Nc1cnc2nc(-c3cc(NC(=O)c4ccco4)ccc3F)cn2c1` [Compound 12, isopropyl (2-(2-fluoro-5-(furan-2-carboxamido)phenyl)imidazo[1,2-a]pyrimidin-6-yl)carbamate], the EC50 ([1]; inhibition of proliferation) is reported as 65.6 nM.
Compound `CC(C)OC(=O)Nc1ccc(F)c(-c2cn3cc(NC(=O)OC(C)C)cnc3n2)c1` [Compound 40] has an EC50 ([1]; inhibition of proliferation) of 185 nM.
Work on `Cc1cnc(C(=O)Nc2cccc(-c3cn4cc(NC(=O)OC(C)C)cnc4n3)c2)s1` [Compound 41] yielded an EC50 ([1]; inhibition of proliferation) of 4400 nM.
`CC(C)OC(=O)Nc1cnc2nc(-c3cccc(NC(=O)C4CC4)c3)cn2c1` [Compound 42] showed an EC50 ([1]; inhibition of proliferation) of 1700 nM.
Compound `Cc1nc(C)c(C(=O)Nc2ccc(F)c(-c3cn4cc(NC(=O)c5nccn5C)cnc4n3)c2)o1` [Compound 174] has an EC50 ([1]; inhibition of proliferation) of 483 nM.
`O=C(Nc1ccc(F)c(-c2cn3cc(-c4ccc(CCN5CCOCC5)cc4)cnc3n2)c1)N1CCCC1` [Compound 352] gave an EC50 [2, 5] of 0.018 µM, an EC50 [3, 6] of 0.215 µM and an EC50 [4, 7] of 0.061 µM.
Compound `O=C(Nc1ccc(F)c(-c2cn3cc(C4=CCOCC4)cnc3n2)c1)N1CCCC1` [Compound 353] has an EC50 [2, 5] of 0.053 µM, an EC50 [3, 6] of 0.051 µM and an EC50 [4, 7] of 0.112 µM.
For `O=C(Nc1ccc(F)c(-c2cn3cc(-c4ccccc4Cl)cnc3n2)c1)N1CCCC1` [Compound 357], the EC50 [2, 5] was 0.015 µM, the EC50 [3, 6] was 0.088 µM and the EC50 [4, 7] was 0.194 µM.
Work on `O=C(Nc1ccc(F)c(-c2cn3cc(-c4ccccc4)cnc3n2)c1)N1CCCC1` [Compound 358] yielded an EC50 [2, 5] of 0.012 µM, an EC50 [3, 6] of 0.03 µM and an EC50 [4, 7] of 0.148 µM.
For `Cc1nc(C)c(C(=O)Nc2ccc(F)c(-c3cn4cc(C5=CCN(C)CC5)cnc4n3)c2)o1` [Compound 361], the EC50 [2, 5] was 1.04 µM, the EC50 [3, 6] was 7.93 µM and the EC50 [4, 7] was 0.993 µM.
In the case of `CCn1nccc1-c1cnc2nc(-c3cc(NC(=O)c4oc(C)nc4C)ccc3F)cn2c1` [Compound 387], the EC50 [2, 8] is reported as 0.149 µM, the EC50 [3, 9] is reported as 0.086 µM and the EC50 [4, 10] is reported as 0.286 µM.
`Cc1nc(C)c(C(=O)Nc2ccc(F)c(-c3cn4cc(-c5ccccn5)cnc4n3)c2)o1` [Compound 394] was tested, and the EC50 [2, 8] was over 20 µM, the EC50 [3, 9] was 0.08 µM and the EC50 [4, 10] was 0.107 µM.
For `O=C(Nc1ccc(F)c(-c2cn3cc(-c4ccccn4)cnc3n2)c1)N1CC(F)C1` [Compound 400], the EC50 [2, 8] was 0.199 µM, the EC50 [3, 9] was 0.045 µM and the EC50 [4, 10] was 0.203 µM.
With `O=C(Nc1ccc(F)c(-c2cn3cc(-c4ccccn4)cnc3n2)c1)N1CCC1` [Compound 404] the EC50 [2, 8] was 0.017 µM, the EC50 [3, 9] was 0.011 µM and the EC50 [4, 10] was 0.034 µM.
`O=C(Nc1ccc(F)c(-c2cn3cc(C4CCOCC4)cnc3n2)c1)N1CCCC1` [Compound 419] was tested, and the EC50 [2, 8] was 0.114 µM, the EC50 [3, 9] was 0.077 µM and the EC50 [4, 10] was 0.182 µM.
`Cc1nc(C)c(C(=O)Nc2ccc(F)c(-c3cn4cc(C5CCOCC5)cnc4n3)c2)o1` [Compound 421] showed an EC50 [2, 8] of 0.17 µM, an EC50 [3, 9] of 0.127 µM and an EC50 [4, 10] of 0.337 µM.
With `Cc1nc(C)c(C(=O)Nc2ccc(F)c(-c3cn4cc(-c5nc(C)c(C)s5)cnc4n3)c2)o1` [Compound 457, N-(3-(6-(4,5-dimethylthiazol-2-yl)imidazo[1,2-a]pyrimidin-2-yl)-4-fluorophenyl)-2,4-dimethyloxazole-5-carboxamide] the EC50 [2, 8] was 0.32 µM, the EC50 [3, 9] was 0.162 µM and the EC50 [4, 10] was 13.2 µM.
With `COc1cccnc1-c1cnc2nc(-c3cc(NC(=O)c4oc(C)nc4C)ccc3F)cn2c1` [Compound 459] the EC50 [2, 8] was 0.119 µM, the EC50 [3, 9] was 0.129 µM and the EC50 [4, 10] was 0.347 µM.
For `Cc1nc(C)c(C(=O)Nc2ccc(F)c(-c3cn4cc(NC(C)C)cnc4n3)c2)o1` [Compound 481], the EC50 [2, 8] was 0.151 µM, the EC50 [3, 9] was 0.209 µM and the EC50 [4, 10] was 0.43 µM.
`CC(C)OC(=O)Nc1cnc2nc(-c3cc(Nc4cccnc4)ccc3F)cn2c1` [Compound 486] showed an EC50 [2, 8] of 1.45 µM, an EC50 [3, 9] of 16.1 µM and an EC50 [4, 10] of over 50 µM.
Compound `Cc1nc(C)c(C(=O)Nc2ccc(F)c(-c3cn4cc(N5CCOCC5)cnc4n3)c2)o1` [Compound 490] has an EC50 [2, 8] of 0.157 µM, an EC50 [3, 9] of 0.134 µM and an EC50 [4, 10] of 0.383 µM.
`COCCNc1cnc2nc(-c3cc(NC(=O)N4CCCC4)ccc3Cl)cn2c1` [Compound 496] was tested, and the EC50 [2, 8] was 2.12 µM, the EC50 [3, 9] was 2.06 µM and the EC50 [4, 10] was 8.85 µM.
With `Cc1nc(C)c(C(=O)Nc2ccc(F)c(-c3cn4cc(NC5=NCCN5C)cnc4n3)c2)o1` [Compound 506] the EC50 [2, 8] was over 18.2 µM, the EC50 [3, 9] was over 25 µM and the EC50 [4, 10] was over 25.9 µM.
`Cc1nc(C)c(C(=O)Nc2ccc(Cl)c(-c3cn4cc(N5CCOC5=O)cnc4n3)c2)o1` [Compound 520, N-(4-chloro-3-(6-(2-oxooxazolidin-3-yl)imidazo[1,2-a]pyrimidin-2-yl)phenyl)-2,4-dimethyloxazole-5-carboxamide] was tested, and the EC50 [2, 8] was over 20 µM, the EC50 [3, 9] was over 25 µM and the EC50 [4, 10] was over 50 µM.
Work on `NNC(=O)Nc1cnc2nc(-c3cc(NC(=O)N4CCCC4)ccc3F)cn2c1` [Compound 521, N-(4-fluoro-3-(6-(hydrazinecarboxamido)imidazo[1,2-a]pyrimidin-2-yl)phenyl)pyrrolidine-1-carboxamide] yielded an EC50 [2, 8] of 9.23 µM, an EC50 [3, 9] of 4.68 µM and an EC50 [4, 10] of 38.2 µM.
`CC(C)NNC(=O)Nc1cnc2nc(-c3cc(NC(=O)N4CCCC4)ccc3F)cn2c1` [Compound 522] was tested, and the EC50 [2, 8] was over 20 µM, the EC50 [3, 9] was 19.3 µM and the EC50 [4, 10] was over 50 µM.
For `CC(=O)Nc1cnc2nc(-c3cc(NC(=O)c4oc(C)nc4C)ccc3F)cn2c1` [Compound 525, N-(3-(6-acetamidoimidazo[1,2-a]pyrimidin-2-yl)-4-fluorophenyl)-2,4-dimethyloxazole-5-carboxamide], the EC50 ([2]; read-out: T cruzi EC50 (μM)) was over 20 µM, the EC50 [3, 11] was 5.35 µM and the EC50 [4, 12] was 21.1 µM.
Work on `O=CNc1cnc2nc(-c3cc(NC(=O)N4CCCC4)ccc3F)cn2c1` [Compound 533, N-(4-fluoro-3-(6-formamidoimidazo[1,2-a]pyrimidin-2-yl)phenyl)pyrrolidine-1-carboxamide] yielded an EC50 [1] of 1540 nM.
`O=C(Nc1ccc(F)c(-c2cn3cc(-n4cn[nH]c4=O)cnc3n2)c1)N1CCCC1` [Compound 534, N-(4-fluoro-3-(6-(5-oxo-1H-1,2,4-triazol-4(5H)-yl)imidazo[1,2-a]pyrimidin-2-yl)phenyl)pyrrolidine-1-carboxamide] showed an EC50 [2, 8] of over 20 µM, an EC50 [3, 9] of over 23.7 µM and an EC50 [4, 10] of over 50 µM.
In the case of `COc1cnc2nc(-c3cc(NC(=O)N4CCCC4)ccc3F)cn2c1` [Compound 536, N-(4-fluoro-3-(6-methoxyimidazo[1,2-a]pyrimidin-2-yl)phenyl)pyrrolidine-1-carboxamide], the EC50 [2, 8] is reported as 0.153 µM, the EC50 [3, 9] is reported as 0.348 µM and the EC50 [4, 10] is reported as 2 µM.
Work on `Cc1nc(C)c(C(=O)N(C)c2ccc(F)c(-c3cn4cc(NC(C)C)cnc4n3)c2)o1` [Compound 557] yielded an EC50 [2, 8] of over 20 µM, an EC50 [3, 9] of over 25 µM and an EC50 [4, 10] of over 50 µM.
Work on `Cc1nc(C)c(C(=O)Nc2ccc(F)c(-c3cn4cc(N5CCC5)cnc4n3)c2)o1` [Compound 559] yielded an EC50 [2, 8] of over 20 µM, an EC50 [3, 9] of over 25 µM and an EC50 [4, 10] of over 50 µM.
Work on `O=C(Nc1ccc(F)c(-c2cn3cc(OCC4CC4)cnc3n2)c1)N1CCCC1` [Compound 562, N-(3-(6-(cyclopropylmethoxy)imidazo[1,2-a]pyrimidin-2-yl)-4-fluorophenyl)pyrrolidine-1-carboxamide] yielded an EC50 [2, 8] of 0.046 µM, an EC50 [3, 9] of 0.16 µM and an EC50 [4, 10] of 0.245 µM.
`Cc1nc(C)c(C(=O)Nc2ccc(F)c(-c3cn4cc(N5CCN(C)CC5)cnc4n3)c2)o1` [Compound 565, N-(4-fluoro-3-(6-(4-methylpiperazin-1-yl)imidazo[1,2-a]pyrimidin-2-yl)phenyl)-2,4-dimethyloxazole-5-carboxamide] gave an EC50 ([2]; read-out: T cruzi EC50 (μM)) of 11.2 µM, an EC50 [3, 11] of 12.3 µM and an EC50 [4, 12] of 6.27 µM.
In the case of `Cc1nc(C)c(C(=O)Nc2ccc(F)c(-c3cn4cc(-c5cccc(N6CCNCC6)n5)cnc4n3)c2)o1` [Compound 572], the EC50 [2, 8] is reported as 0.394 µM, the EC50 [3, 9] is reported as 1.94 µM and the EC50 [4, 10] is reported as 2.36 µM.
For `O=C(Nc1ccc(F)c(-c2cn3cc(-c4ccccc4)cnc3n2)c1)c1ccc(F)o1` [Compound 576, 5-fluoro-N-(4-fluoro-3-(6-phenylimidazo[1,2-a]pyrimidin-2-yl)phenyl)furan-2-carboxamide], the EC50 [2, 8] was 0.05 µM, the EC50 [3, 9] was 0.526 µM and the EC50 [4, 10] was 0.807 µM.
With `CC1(c2nc(Nc3ccc(F)c(-c4cn5cc(C6CC6)cnc5n4)c3)no2)COC1` [Compound 595, N-(3-(6-cyclopropylimidazo[1,2-a]pyrimidin-2-yl)-4-fluorophenyl)-5-(3-methyloxetan-3-yl)-1,2,4-oxadiazol-3-amine] the EC50 [2, 8] was 9.17 µM, the EC50 [3, 9] was over 25 µM and the EC50 [4, 10] was over 50 µM.
With `CC(C)(CO)c1nc(Nc2ccc(F)c(-c3cn4cc(C5CC5)cnc4n3)c2)no1` [Compound 596] the EC50 [2, 8] was 3.74 µM, the EC50 [3, 9] was over 21.2 µM and the EC50 [4, 10] was 0.075 µM.
